According to EPA's ToxRefDB 2:

Experiments:
rat [1] = conditions: Combined chronic toxicity/carcinogenicity; sprague dawley; Oral; Feed; dose end: 104 week; group: systemic; systemic / in life observation / body weight / body weight gain + systemic / pathology microscopic / kidney / concretion + systemic / …
rat [2] = conditions: Multigenerational reproductive toxicity study, sprague dawley, Oral, Feed, dose end: 2 generation
rabbit [3] = conditions: Prenatal developmental toxicity study, new zealand white, Oral, Gavage/Intubation, dose end: 19 GD, group: maternal
dog = conditions: Chronic toxicity, beagle, Oral, Feed, dose end: 106 week, group: systemic
rat [4] = conditions: Prenatal developmental toxicity study, other, Oral, Gavage/Intubation, dose end: 15 GD
rat [5] = conditions: Combined chronic toxicity/carcinogenicity, other, Oral, Feed, dose end: 27 month, group: systemic
rat [6] = conditions: Multigenerational reproductive toxicity study, other, Oral, Feed, dose end: 3 generation
rat [7] = conditions: Combined chronic toxicity/carcinogenicity, other, Oral, Feed, dose end: 27 month, group: systemic; remark: listed apart in the source
rabbit [8] = conditions: Sub-acute dermal toxicity, new zealand white, Topical, dose end: 28 day, group: systemic, systemic / in life observation / body weight / body weight + systemic / in life observation / food consumption / food consumption + systemic…
mouse = conditions: Combined chronic toxicity/carcinogenicity; other; Oral; Feed; dose end: 24 month; group: systemic; systemic / organ weight / thyroid gland / absolute + systemic / organ weight / thyroid gland / relative to body weight + systemic / organ …
rat [9] = conditions: Sub-acute repeat dose toxicity, other, Oral, Feed, dose end: 28 day, group: systemic
rat [10] = conditions: Prenatal developmental toxicity study; wistar; Oral; Gavage/Intubation; dose end: 5 GD; group: maternal; reproductive / reproductive performance / implantations / implantations
rat [11] = conditions: Developmental neurotoxicity study; sprague dawley; Inhalation; Whole-Body; dose end: 365 PND; group: cannot be grouped; systemic / in life observation / body weight / body weight gain + systemic / in life observation / body weight / offspring (pup) weight
[12] = group: offspring, systemic / in life observation / body weight / offspring (pup) weight
[13] = group: parental, systemic / in life observation / body weight / body weight + systemic / in life observation / body weight / body weight gain + systemic / in…
[14] = reproductive / reproductive performance / resorptions / resorptions + systemic / in life observation / food consumption / food consumption
[15] = systemic / pathology microscopic / bone marrow / atrophy + systemic / pathology microscopic / kidney / congestion + systemic / pathology …
[16] = group: developmental, developmental / developmental malformation / bone / unossified
[17] = group: maternal, reproductive / reproductive performance / aborted / aborted + systemic / in life observation / body weight / body weight gain + systemic / …
[18] = systemic / in life observation / body weight / body weight + systemic / in life observation / food consumption / food consumption
[19] = systemic / in life observation / body weight / body weight + systemic / in life observation / food consumption / food consumption + systemic…
[20] = group: parental, systemic / in life observation / body weight / body weight + systemic / organ weight / brain / relative to body weight
[21] = group: parental, systemic / in life observation / body weight / body weight + systemic / pathology gross / full gross necropsy / hyperemia + systemic / …
[22] = group: reproductive, reproductive / reproductive performance / fertility / fertility + reproductive / reproductive performance / mating / mating + reproductive…
[23] = group: reproductive, reproductive / reproductive performance / mating / mating + reproductive / reproductive performance / pregnancy / pregnancy
[24] = systemic / in life observation / body weight / body weight
[25] = systemic / in life observation / body weight / body weight + systemic / pathology microscopic / testes / interstitial cell tumor benign + …
[26] = systemic / organ weight / liver / absolute + systemic / organ weight / liver / relative to brain weight
[27] = systemic / organ weight / liver / absolute + systemic / organ weight / liver / relative to brain weight + systemic / organ weight / liver / …

## CSc1nc(NC(C)C)nc(NC(C)C)n1 [Prometryn]
Rat [1]
  LEL: 60.9 mg/kg/day
  LOAEL: 60.9 mg/kg/day
  NEL: 29.4 mg/kg/day
  NOAEL: 29.4 mg/kg/day
Rat [2]; [12]
  LEL: 47.8 mg/kg/day
  LOAEL: 47.8 mg/kg/day
  NEL: 0.6 mg/kg/day
  NOAEL: 0.6 mg/kg/day
Rat [2]; [13]
  LEL: 47.8 mg/kg/day
  LOAEL: 47.8 mg/kg/day
  NEL: 0.6 mg/kg/day
  NOAEL: 0.6 mg/kg/day
Rabbit [3]; [14]
  LOAEL: 72 mg/kg/day
  NEL: 12 mg/kg/day
  NOAEL: 12 mg/kg/day
Rabbit [3]; reproductive / reproductive performance / resorptions / resorptions + systemic / in life observation / food consumption / food consumption…
  LEL: 72 mg/kg/day
dog; [15]
  LOAEL: 37.5 mg/kg/day
  NEL: 0.375 mg/kg/day
  NOAEL: 3.75 mg/kg/day
dog; systemic / pathology microscopic / liver / cellular alteration + systemic / pathology microscopic / liver / depletion glycogen + systemic / …
  LEL: 3.75 mg/kg/day

## CCNc1nc(Cl)nc(NC(C)(C)C)n1 [Terbuthylazine]
Rat [4]; [16]
  LEL: 5 mg/kg/day
  LOAEL: 5 mg/kg/day
  NEL: 1 mg/kg/day
  NOAEL: 1 mg/kg/day
Rat [4]; [17]
  LEL: 30 mg/kg/day
  LOAEL: 30 mg/kg/day
  NEL: 5 mg/kg/day
  NOAEL: 5 mg/kg/day
Rat [5]; [18]
  NEL: 0.36 mg/kg/day
  NOAEL: 0.36 mg/kg/day
Rat [5]; [19]
  LEL: 1.6 mg/kg/day
  LOAEL: 1.6 mg/kg/day
Rat [6]; [20]
  LEL: 2.5 mg/kg/day
  NEL: < 2.5 mg/kg/day
Rat [6]; [21]
  LOAEL: > 5 mg/kg/day
  NOAEL: ≥ 5 mg/kg/day
Rat [6]; [22]
  LOAEL: > 5 mg/kg/day
  NOAEL: ≥ 5 mg/kg/day
Rat [6]; [23]
  LEL: 2.5 mg/kg/day
  NEL: < 2.5 mg/kg/day
Rat [7]; [24]
  LOAEL: 1.24 mg/kg/day
  NOAEL: < 1.24 mg/kg/day
Rat [7]; [25]
  LEL: 1.24 mg/kg/day
  NEL: < 1.24 mg/kg/day
Rabbit [8]
  LEL: 1 mg/kg/day
  LOAEL: 1 mg/kg/day
  NEL: < 1 mg/kg/day
  NOAEL: < 1 mg/kg/day
mouse
  LEL: 3.22 mg/kg/day
  LOAEL: 3.22 mg/kg/day
  NEL: < 3.22 mg/kg/day
  NOAEL: < 3.22 mg/kg/day
Rat [9]; [26]
  LOAEL: 2.28 mg/kg/day
  NOAEL: < 2.28 mg/kg/day
Rat [9]; [27]
  LEL: 2.28 mg/kg/day
  NEL: < 2.28 mg/kg/day

## Cc1ccc(-c2cc(C(F)(F)F)nn2-c2ccc(S(N)(=O)=O)cc2)cc1 [Celecoxib]
Rat [10]
  LEL: 80 mg/kg/day
  LOAEL: > 160 mg/kg/day
  NEL: 40 mg/kg/day
  NOAEL: ≥ 160 mg/kg/day

## FC(F)(F)C(Cl)Br (centres undefined) [Halothane]
Rat [11]
  LEL: 12.5 ppm
  LOAEL: > 12.5 ppm
  NEL: < 12.5 ppm
  NOAEL: ≥ 12.5 ppm
